According to US8481738B2, “Gonadotropin-releasing hormone receptor antagonists and methods relating thereto” (Neurocrine Biosciences, Inc., priority 2007, dated 2013):

Molecular target: T1, human GnRH receptor (Homo sapiens, UniProt P30968)
T1 construct: expressed in transfected cells; host or cells: RBL cells, stably transfected (in general)
T1 sequence (P30968 1-328): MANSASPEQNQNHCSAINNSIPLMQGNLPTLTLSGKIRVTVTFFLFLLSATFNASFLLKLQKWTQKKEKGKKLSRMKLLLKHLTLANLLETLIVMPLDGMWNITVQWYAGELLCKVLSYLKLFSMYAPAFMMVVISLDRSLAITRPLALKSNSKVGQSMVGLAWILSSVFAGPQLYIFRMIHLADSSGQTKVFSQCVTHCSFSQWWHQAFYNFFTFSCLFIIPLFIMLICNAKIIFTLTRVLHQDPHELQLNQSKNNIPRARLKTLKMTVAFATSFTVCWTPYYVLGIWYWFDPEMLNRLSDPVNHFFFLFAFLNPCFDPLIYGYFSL
Test: Peptide competition radioligand binding displacement assay, human GnRH receptor membranes
Settings: one or more of the peptide competition human receptor binding assays
How it was run: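 Membranes for radioligand binding were prepared from RBL cells stably expressing human GnRH receptor, which were lysed by nitrogen cavitation at 900 psi, 4° C. Membranes from HEK293 cells stably transfected with human receptor were held in 10 mM HEPES pH 7.5, 150 mM NaCl, 0.1% BSA. Transiently transfected COS-7 cells were used for other species.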

Row | SMILES | Ki
1 | CN(C(=O)c1cc(-c2cnc(C(F)(F)F)cc2C#N)c(Cl)cc1OCCCC(=O)O)c1ccccn1 [34-18] | ≤ 100 nM
2 | COc1cccc(C)c1N(C)C(=O)c1ccc(Cl)c(-n2c(C)cc(C(F)(F)F)nc2=O)c1 [30-10] | ≤ 100 nM
3 | Cc1cccc(OCCCO)c1N(C)C(=O)c1ccc(Cl)c(-c2ccc(C(F)(F)F)cc2C#N)c1 [10-1, 4-Chloro-3-(2-cyano-4-trifluoromethyl-phenyl)-N-[2-(3-hydroxy-propoxy)-6-methyl-phenyl]-N-methyl-benzamide] | ≤ 100 nM
4 | CN(C(=O)c1ccc(Cl)c(-c2cnc(C(F)(F)F)cc2C#N)c1)c1ccccc1OCCCN1CCC[C@H]1C(=O)O [50-1, (S)-1-[3-(2-{[4-Chloro-3-(4-cyano-6-trifluoromethyl-pyridin-3-yl)-benzoyl]-methyl-amino}-phenoxy)-propyl]-pyrrolidine-2-carboxylic acid] | ≤ 100 nM

The remaining lines, values ahead:

Row | Ki | SMILES
5 | ≤ 100 nM | COC(=O)CCCOc1ccccc1N(C)C(=O)c1ccc(Cl)c(-c2cnc(C#N)cc2C)c1 [3-8]
6 | ≤ 100 nM | COc1cccc(C)c1N(C)C(=O)c1cc(-c2nc3ccccc3cc2C#N)c(Cl)cc1OCCCCO [21-3]
7 | ≤ 100 nM | COc1ccccc1N(C)C(=O)c1cc(-c2cnc(C(F)(F)F)cc2C#N)c(Cl)cc1OCCCc1ccn(C)n1 [42-14]
